# Results taken from paper PMC6277767, “Broad and Region-Specific Impacts of the Synthetic Cannabinoid CP 55,940 in Adolescent and Adult Female Mouse Brains” (Frontiers in Molecular Neuroscience, 2018).
# Test system: CD1 female mouse brain lipidome
# Experiment: Brain-region lipid levels (HPLC/MS/MS lipidomics) 2 h after single i.p. 3 mg/kg CP 55,940 vs vehicle
# Assay type: in vivo
# Experimental: The Bloomington Institutional Animal Care and Use Committee of Indiana University reviewed and approved the animal procedures. Female mice from the CD1 strain were utilized to match our study examining THC’s effects on the brain lipidome ([Leishman et al., 2018]). Mice were given a single i.p. injection of either 3 mg/kg CP or 1:1:18 cremophor:ethanol:saline vehicle (please refer to the section “3 mg/kg CP Is Relevant for Synthetic Cannabinoid Abuse and Has Stronger Effects on the Female Mouse Brain Lipidome During Adolescence” for a justification of dose and use of female mice). Three different age groups were given injections: PND 35 and PND 50 adolescents, and adult mice (PND 113). At least eight mice in each age group received CP and at least eight received vehicle. Matching the THC study time course ([Leishman et al., 2018]), mice were sacrificed via rapid decapitation 2 h after injection. Brains were immediately removed and flash-frozen in liquid nitrogen, and then stored at -80°C until dissections were performed. Brains were dissected on an ice-cold dissection plate into the following regions: STR, HIPP, CER, THAL, CTX, HYP, MID, and STEM. These abbreviations for these brain areas will be used exclusively when discussing the results generated by these specific dissections. Each dissected area was immediately placed in liquid nitrogen and then stored at -80°C until used for lipid extraction.
# Tissue extracts were performed as previously described ([Bradshaw et al., 2006]; [Stuart et al., 2013]; [Raboune et al., 2014]; [Leishman et al., 2016a],[b], [2017], [2018]). First, samples were shock frozen in liquid nitrogen, weighed, and transferred to a centrifuge tube. The mass of the largest sample was multiplied by 50 to determine how many milliliters of HPLC-grade methanol (Fisher, Fair Lawn, NJ, United States) to add. Then, samples were spiked with 500 pmol deuterium-labeled NAGly (d8NAGly; Cayman Chemical, Ann Arbor, MI, United States). Samples were placed on ice in darkness for 2 h then individually homogenized and centrifuged at 19,000 × g for 20 min at 20°C. Supernatants were diluted with HPLC water (purified in house) to make a solution of 75% water, 25% supernatant. Lipids were partially purified on C18 solid phase extraction columns (Agilent, Palo Alto, CA, United States). A series of four elutions with 1.5 mL of 60%, 75%, 85%, and 100% methanol were collected ([Stuart et al., 2013]; [Leishman et al., 2016a],[b], [2018]).
# As previously described ([Bradshaw et al., 2006]; [Tan et al., 2006]; [Smoum et al., 2010]; [Stuart et al., 2013]; [Tortoriello et al., 2013]; [Raboune et al., 2014]; [Leishman et al., 2016a],[b], [2017], [2018]), samples were analyzed using an Applied Biosystems API 3000 triple quadrupole mass spectrometer with electrospray ionization (Foster City, CA, United States). Using an Agilent XDB-C18 reversed phase analytical column and optimized mobile phase gradients, 20 μL from each elution were chromatographed. Two Shimadzu 10ADvp pumps (Columbia, MD, United States) provided the pressure for gradient elution. Mobile phase A: 20% methanol, 80% water (v/v) and 1 mM ammonium acetate (Sigma, St. Louis, MO, United States). Mobile phase B: 100% methanol, 1 mM ammonium acetate. Every method run began with 0% mobile phase B, reached 100% mobile phase B flowing at 0.2 mL/min, and gradually returned to 0% mobile phase B.
# This screening library will be referred to as the lipidome when discussing data from this study. HPLC/MS/MS data were analyzed using Analyst software (Applied Biosystems) ([Bradshaw et al., 2006]; [Tan et al., 2006]; [Stuart et al., 2013]; [Tortoriello et al., 2013]; [Raboune et al., 2014]; [Leishman et al., 2016a],[b], [2017], [2018]). Chromatograms (Supplementary Figure 3) were generated by determining the retention time of analytes from the analytical column with a [M-1] or [M+1] parent peak and a fragmentation peak corresponding to the programmed values. […]
compound,measurement,setting,value
"CCCCCCC(C)(C)c1ccc([C@@H]2C[C@H](O)CC[C@H]2CCCO)c(O)c1 [CP 55,940]",PGF2α level vs vehicle,PND 35 STR,↑ (1-1.49 times higher than vehicle)
same,2-linoleoyl glycerol level vs vehicle,PND 35 THAL,↓ (1-1.49 times lower than vehicle)
same,6-ketoPGF1α level vs vehicle,PND 35 THAL,↓ (1-1.49 times lower than vehicle)
same,N- stearoyl valine level vs vehicle,PND 35 THAL,↑ (1-1.49 times higher than vehicle)
same,N-arachidonoyl GABA level vs vehicle,PND 35 THAL,↓ (1-1.49 times lower than vehicle)
same,N-arachidonoyl alanine level vs vehicle,PND 35 THAL,↓ (1-1.49 times lower than vehicle)
same,N-arachidonoyl ethanolamine level vs vehicle,PND 35 THAL,↑ (1-1.49 times higher than vehicle)
same,N-arachidonoyl glycine level vs vehicle,PND 35 THAL,↓ (1-1.49 times lower than vehicle)
same,N-arachidonoyl phenylalanine level vs vehicle,PND 35 THAL,↑ (1-1.49 times higher than vehicle)
same,N-arachidonoyl serine level vs vehicle,PND 35 THAL,↓ (1-1.49 times lower than vehicle)
same,N-arachidonoyl taurine level vs vehicle,PND 35 THAL,↓ (1-1.49 times lower than vehicle)
same,N-docosahexaenoyl GABA level vs vehicle,PND 35 THAL,↓ (1-1.49 times lower than vehicle)
same,N-docosahexaenoyl alanine level vs vehicle,PND 35 THAL,↓ (1-1.49 times lower than vehicle)
same,N-docosahexaenoyl glycine level vs vehicle,PND 35 THAL,↓ (1-1.49 times lower than vehicle)
same,N-docosahexaenoyl leucine level vs vehicle,PND 35 THAL,↑↑ (1.50-1.99 times higher than vehicle)
same,N-docosahexaenoyl phenylalanine level vs vehicle,PND 35 THAL,↑ (1-1.49 times higher than vehicle)
same,N-linoleoyl ethanolamine level vs vehicle,PND 35 THAL,↑ (1-1.49 times higher than vehicle)
same,N-oleoyl GABA level vs vehicle,PND 35 THAL,↓ (1-1.49 times lower than vehicle)
same,N-oleoyl alanine level vs vehicle,PND 35 THAL,↓ (1-1.49 times lower than vehicle)
same,N-oleoyl glycine level vs vehicle,PND 35 THAL,↓ (1-1.49 times lower than vehicle)
same,N-oleoyl leucine level vs vehicle,PND 35 THAL,↑ (1-1.49 times higher than vehicle)
same,N-oleoyl valine level vs vehicle,PND 35 THAL,↑ (1-1.49 times higher than vehicle)
same,N-palmitoyl GABA level vs vehicle,PND 35 THAL,↑ (1-1.49 times higher than vehicle)
same,N-palmitoyl leucine level vs vehicle,PND 35 THAL,↑ (1-1.49 times higher than vehicle)
same,N-palmitoyl phenylalanine level vs vehicle,PND 35 THAL,↑ (1-1.49 times higher than vehicle)
same,N-palmitoyl tyrosine level vs vehicle,PND 35 THAL,↑ (1-1.49 times higher than vehicle)
same,N-palmitoyl valine level vs vehicle,PND 35 THAL,↑↑ (1.50-1.99 times higher than vehicle)
same,N-stearoyl serine level vs vehicle,PND 35 THAL,↓ (1-1.49 times lower than vehicle)
same,N-stearoyl tyrosine level vs vehicle,PND 35 THAL,↓ (1-1.49 times lower than vehicle)
same,PGE2 level vs vehicle,PND 35 THAL,↑ (1-1.49 times higher than vehicle)
same,phosphoLEA level vs vehicle,PND 35 THAL,↑ (1-1.49 times higher than vehicle)
same,changes in NAEs,PND 35 brain,17
same,changes in PG levels,PND 35 brain,15
same,changes in lipoamines derived from AA,PND 35 brain,50
same,decreases in 2-acyl glycerol levels,PND 35 brain,15
same,decreases in PG levels,PND 35 brain,5
same,decreases in free fatty acid levels,PND 35 brain,Eight
same,increases in PG levels,PND 35 brain,10
same,percentage of detected lipids modified with acute CP,"PND 35 brain, 529 detected",43.67%
same,"2-arachidonoyl glycerol, Direction (relative to Veh)",PND 35 hypothalamus,↓
same,"2-arachidonoyl glycerol, Magnitude (x Veh level)",PND 35 hypothalamus,0.39 x Veh level
same,2-linoleoyl glycerol Direction (relative to Veh),PND 35 hypothalamus,↓
same,2-linoleoyl glycerol Magnitude (x Veh level),PND 35 hypothalamus,0.63 x Veh level
same,"2-oleoyl glycerol, Direction (relative to Veh)",PND 35 hypothalamus,↓
same,"2-oleoyl glycerol, Magnitude (x Veh level)",PND 35 hypothalamus,0.55 x Veh level
same,"2-palmitoyl glycerol, Direction (relative to Veh)",PND 35 hypothalamus,↑
same,"2-palmitoyl glycerol, Magnitude (x Veh level)",PND 35 hypothalamus,1.29 x Veh level
same,"Arachidonic acid, Direction (relative to Veh)",PND 35 hypothalamus,↓
same,"Arachidonic acid, Magnitude (x Veh level)",PND 35 hypothalamus,0.85 x Veh level
same,"Linoleic acid, Direction (relative to Veh)",PND 35 hypothalamus,↓
same,"Linoleic acid, Magnitude (x Veh level)",PND 35 hypothalamus,0.75 x Veh level
same,N-arachidonoyl GABA Direction (relative to Veh),PND 35 hypothalamus,↓
same,N-arachidonoyl GABA Magnitude (x Veh level),PND 35 hypothalamus,0.74 x Veh level
same,N-arachidonoyl alanine Magnitude (x Veh level),PND 35 hypothalamus,0.55 x Veh level
same,"N-arachidonoyl alanine, Direction (relative to Veh)",PND 35 hypothalamus,↓
same,"N-arachidonoyl ethanolamine, Direction (relative to Veh)",PND 35 hypothalamus,↓
same,"N-arachidonoyl ethanolamine, Magnitude (x Veh level)",PND 35 hypothalamus,0.76 x Veh level
same,N-arachidonoyl glycine Direction (relative to Veh),PND 35 hypothalamus,↓
same,N-arachidonoyl glycine Magnitude (x Veh level),PND 35 hypothalamus,0.70 x Veh level
same,"N-arachidonoyl phenylalanine, Direction (relative to Veh)",PND 35 hypothalamus,↓
same,"N-arachidonoyl phenylalanine, Magnitude (x Veh level)",PND 35 hypothalamus,0.86 x Veh level
same,N-arachidonoyl taurine Direction (relative to Veh),PND 35 hypothalamus,↓
same,N-arachidonoyl taurine Magnitude (x Veh level),PND 35 hypothalamus,0.70 x Veh level
same,N-docosahexaenoyl GABA Direction (relative to Veh),PND 35 hypothalamus,↓
same,N-docosahexaenoyl GABA Magnitude (x Veh level),PND 35 hypothalamus,0.68 x Veh level
same,"N-docosahexaenoyl ethanolamine, Direction (relative to Veh)",PND 35 hypothalamus,↓
same,"N-docosahexaenoyl ethanolamine, Magnitude (x Veh level)",PND 35 hypothalamus,0.59 x Veh level
same,N-linoleoyl alanine direction (relative to Veh),PND 35 hypothalamus,↓
same,N-linoleoyl alanine magnitude (x Veh level),PND 35 hypothalamus,0.77 x Veh level
same,N-oleoyl GABA Magnitude (x Veh level),PND 35 hypothalamus,0.87 x Veh level
same,N-oleoyl GABA direction (relative to Veh),PND 35 hypothalamus,↓
same,N-oleoyl alanine Magnitude (x Veh level),PND 35 hypothalamus,0.84 x Veh level
same,N-oleoyl alanine direction (relative to Veh),PND 35 hypothalamus,↓
same,"N-oleoyl ethanolamine, Direction (relative to Veh)",PND 35 hypothalamus,↓
same,"N-oleoyl ethanolamine, Magnitude (x Veh level)",PND 35 hypothalamus,0.65 x Veh level
same,"N-palmitoyl ethanolamine, Direction (relative to Veh)",PND 35 hypothalamus,↓
same,"N-palmitoyl ethanolamine, Magnitude (x Veh level)",PND 35 hypothalamus,0.66 x Veh level
same,"N-palmitoyl leucine, Direction (relative to Veh)",PND 35 hypothalamus,↑
same,"N-palmitoyl leucine, Magnitude (x Veh level)",PND 35 hypothalamus,1.30 x Veh level
same,N-stearoyl ethanolamine direction (relative to Veh),PND 35 hypothalamus,↓
same,N-stearoyl ethanolamine magnitude (x Veh level),PND 35 hypothalamus,0.73 x Veh level
same,"Oleic acid, Direction (relative to Veh)",PND 35 hypothalamus,↓
same,"Oleic acid, Magnitude (x Veh level)",PND 35 hypothalamus,0.72 x Veh level
same,PGE2 Direction (relative to Veh),PND 35 hypothalamus,↓
same,PGE2 Magnitude (x Veh level),PND 35 hypothalamus,0.78 x Veh level
same,PGF2α Direction (relative to Veh),PND 35 hypothalamus,↑
same,PGF2α Magnitude (x Veh level),PND 35 hypothalamus,1.27 x Veh level
same,phoshoLEA direction (relative to Veh),PND 35 hypothalamus,↑
same,phoshoLEA magnitude (x Veh level),PND 35 hypothalamus,1.47 x Veh level
same,2-linoleoyl glycerol: Magnitude (x Veh level),"PND 35 midbrain, 3mg/kg",0.76 x Veh level
same,6-ketoPGF1α: Magnitude (x Veh level),"PND 35 midbrain, 3mg/kg",0.86 x Veh level
same,Arachidonic acid: Magnitude (x Veh level),"PND 35 midbrain, 3mg/kg",0.88 x Veh level
same,N-arachidonoyl GABA: Magnitude (x Veh level),"PND 35 midbrain, 3mg/kg",0.69 x Veh level
same,N-arachidonoyl alanine: Magnitude (x Veh level),"PND 35 midbrain, 3mg/kg",0.79 x Veh level
same,N-arachidonoyl glycine: Magnitude (x Veh level),"PND 35 midbrain, 3mg/kg",0.89 x Veh level
same,N-arachidonoyl serine: Magnitude (x Veh level),"PND 35 midbrain, 3mg/kg",0.82 x Veh level
same,N-arachidonoyl taurine: Magnitude (x Veh level),"PND 35 midbrain, 3mg/kg",0.87 x Veh level
same,N-arachidonoyl tyrosine: Magnitude (x Veh level),"PND 35 midbrain, 3mg/kg",0.81 x Veh level
same,N-docosahexaenoyl GABA: Magnitude (x Veh level),"PND 35 midbrain, 3mg/kg",0.72 x Veh level
same,N-docosahexaenoyl alanine: Magnitude (x Veh level),"PND 35 midbrain, 3mg/kg",0.82 x Veh level
same,N-docosahexaenoyl glycine: Magnitude (x Veh level),"PND 35 midbrain, 3mg/kg",0.88 x Veh level
same,N-docosahexaenoyl leucine: Magnitude (x Veh level),"PND 35 midbrain, 3mg/kg",1.40 x Veh level
